Measured values published in PubChem BioAssay (NCI).
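Compound exposure: 48 hours, 5 concentrations, 96-well plates. TGI denotes the concentration required for complete inhibition of growth.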

Legend:
Test in all cases: inhibition of tumour cell growth, NCI panel, 48 h
[1] = test system: SR leukemia
[2] = test system: SK-MEL-28 melanoma
[3] = test system: HOP-92 NSCLC
[4] = test system: UO-31 renal
[5] = test system: HCT-116 colon
[6] = test system: SK-OV-3 ovarian
[7] = test system: EKVX NSCLC
[8] = test system: SF-268 CNS
[9] = test system: ACHN renal
[10] = test system: NCI-H522 lung
[11] = test system: IGROV1 ovarian
[12] = test system: RXF 393 renal
[13] = test system: RXF-631 renal
[14] = test system: CCRF-CEM leukemia
[15] = test system: U251 CNS
[16] = test system: TK-10 renal
[17] = test system: UACC-62 melanoma
[18] = test system: A549 NSCLC
[19] = test system: SNB-19 CNS
[20] = test system: NCI-H23 lung
[21] = test system: KM12 colon
[22] = test system: MOLT-4 leukemia
[23] = test system: HL-60(TB) leukemia
[24] = test system: SNB-78 CNS
[25] = test system: DMS 114 small cell lung
[26] = test system: OVCAR-5 ovarian
[27] = test system: LXFL 529 NSCLC
[28] = test system: HOP-18 NSCLC
[29] = test system: SNB-75 CNS
[30] = test system: 786-0 renal
[31] = test system: SF-295 CNS
[32] = test system: OVCAR-3 ovarian
[33] = test system: LOX IMVI melanoma
[34] = test system: SK-MEL-2 melanoma
[35] = test system: HT29 colon
[36] = test system: SK-MEL-5 melanoma
[37] = test system: XF 498 CNS
[38] = test system: NCI-H460 lung
[39] = test system: MALME-3M melanoma
[40] = test system: A498 renal
[41] = test system: DLD-1 colon
[42] = test system: CAKI-1 renal
[43] = test system: SF-539 CNS
[44] = test system: KM20L2 colon
[45] = test system: COLO 205 colon
[46] = test system: OVCAR-8 ovarian
[47] = test system: OVCAR-4 ovarian
[48] = test system: M14 melanoma
[49] = test system: UACC-257 melanoma
[50] = test system: HCT-15 colon
[51] = test system: SN12C renal
[52] = test system: M19-MEL melanoma
[53] = test system: RPMI-8226 leukemia
[54] = test system: K-562 leukemia
[55] = test system: NCI-H226 lung
[56] = test system: DMS 273 small cell lung
[57] = test system: SW-620 colon
[58] = test system: HCC-2998 colon
[59] = test system: HOP-62 NSCLC

Measured: TGI

C=CC1C2=C(C(=O)NCC2)C2OC(O)C3=C(CCNC3=O)C2C1C (stereo not given)
> 100 µM: [1] | [2] | [3] | [4] | [5] | [6] | [7] | [8] | [9] | [10] | [11] | [12] | [13] | [14] | [15] | [16] | [17] | [18] | [19] | [20] | [21] | [22] | [23] | [24] | [25] | [26]

O=C(O)CN(c1ccc(Cl)cc1)S(=O)(=O)c1ccccc1
not listed: [1] | [5] | [24] | [25] | [58] | [59]
> 100 µM: all other assays above

COC1C=C(Nc2cccc(Cl)c2)C(=O)C1 (stereo not given)
77 µM: [37]
76.2 µM: [28]
41.2 µM: [18]
92.9 µM: [12]
32.2 µM: [40]
55.3 µM: [7]
22.1 µM: [45]
not listed: [13] | [50] | [53]
> 100 µM: all other assays above
